Reference: patent publication US20160250224A1, “OREXIN-CONTROL OF BONE FORMATION AND LOSS” (THE BOARD OF REGENTS OF THE UNIVERSITY OF TEXAS SYSTEM, priority 2013, published 2016)
Where no end group is shown, it is not given here.

Columns and labels:
insomniacs = conditions: phase III, three months; cited from earlier work
[1] = tested on: osteoblast differentiation from WT marrow; test: Ex vivo bone marrow osteoblast differentiation; format: cell-based, mouse; conditions: 10 nM, vs vehicle control
Description: (§1) Ex Vivo Bone Marrow Differentiation. Bone marrow cells were cultured for 4 days in MSC media (Mouse MesenCult® Proliferation Kit, StemCell Technologies), then differentiated into osteoblast with a-MEM containing 10% FBS, 5 mM β-glycerophosphate and 100 μg/ml ascorbic acid for 9 days, or differentiated into adipocytes with adipogenesis medium (MesenCult Basal Medium+Mouse MesenCult Adipogenic Stimulatory Supplement, StemCell Technologies) for 7 days (Wei et al., 2012; Wei et al., 2011a; Wei et al., 2011b). For ghrelin knockdown, siRNA was transfected twice with Fugene HD (Roche) the day before and 3 days after differentiation. Osteoclast differentiation was performed as described (Wan et al., 2007; Wei et al., 2010).

[2] = tested on: adipocyte differentiation from WT marrow; test: Ex vivo bone marrow adipocyte differentiation; format: cell-based, mouse; conditions: 10 nM, vs vehicle control
Description: as §1

ghrelin [3] = test: Ghrelin expression and secretion in marrow osteoblast differentiation cultures; format: cell-based, mouse; conditions: 10 nM; for ghrelin induction during osteoblast differentiation: ghrelin mRNA; for ghrelin secretion: osteoblast culture
ghrelin [4] = test: Ghrelin expression and secretion in marrow adipocyte differentiation cultures; format: cell-based, mouse; conditions: for ghrelin expression in adipocyte differentiation cultures: 10 nM, ghrelin mRNA; for ghrelin secretion: adipocyte culture (not shown)
OX1 = biological target: T1, OX1 (Homo sapiens, UniProt O43613); conditions: OX1 vs OX2; cited from earlier work
T1 sequence (O43613 1-425): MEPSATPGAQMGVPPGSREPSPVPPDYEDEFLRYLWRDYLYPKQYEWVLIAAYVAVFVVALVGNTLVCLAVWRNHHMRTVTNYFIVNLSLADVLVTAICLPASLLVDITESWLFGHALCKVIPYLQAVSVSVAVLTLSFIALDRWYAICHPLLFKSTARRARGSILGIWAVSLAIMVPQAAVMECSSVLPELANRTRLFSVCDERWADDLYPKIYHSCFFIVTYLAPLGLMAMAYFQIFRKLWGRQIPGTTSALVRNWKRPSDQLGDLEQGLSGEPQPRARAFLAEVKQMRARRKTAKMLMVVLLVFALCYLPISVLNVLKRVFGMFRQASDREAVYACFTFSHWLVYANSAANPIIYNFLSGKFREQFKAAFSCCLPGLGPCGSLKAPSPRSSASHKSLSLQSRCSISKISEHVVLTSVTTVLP

3T3-L1 adipocytes = conditions: cited from earlier work
orexin receptor type 2 = biological target: T2, orexin receptor type 2 (Homo sapiens, UniProt O43614); conditions: type 2 vs type 1; cited from earlier work
T2 sequence (O43614 1-444): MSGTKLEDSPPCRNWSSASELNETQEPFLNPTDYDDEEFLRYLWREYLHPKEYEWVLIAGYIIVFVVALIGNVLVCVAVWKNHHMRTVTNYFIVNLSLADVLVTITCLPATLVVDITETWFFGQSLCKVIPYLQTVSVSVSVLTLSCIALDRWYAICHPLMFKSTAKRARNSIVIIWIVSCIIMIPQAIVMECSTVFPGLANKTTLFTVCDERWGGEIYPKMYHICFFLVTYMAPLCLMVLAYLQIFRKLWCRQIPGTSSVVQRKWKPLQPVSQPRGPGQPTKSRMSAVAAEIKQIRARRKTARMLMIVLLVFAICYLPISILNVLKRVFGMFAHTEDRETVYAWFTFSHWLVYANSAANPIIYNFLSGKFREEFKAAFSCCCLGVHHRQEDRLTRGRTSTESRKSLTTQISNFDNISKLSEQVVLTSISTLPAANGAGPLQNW

orexin-A receptor = biological target: T3, orexin-A receptor (Rattus norvegicus, UniProt P56718); conditions: rats, low doses; cited from earlier work
T3 construct: The insula contains orexin-A receptors; from tissue; host or cells: rat brain (insula; whole brain), in vivo
T3 sequence (P56718 1-416): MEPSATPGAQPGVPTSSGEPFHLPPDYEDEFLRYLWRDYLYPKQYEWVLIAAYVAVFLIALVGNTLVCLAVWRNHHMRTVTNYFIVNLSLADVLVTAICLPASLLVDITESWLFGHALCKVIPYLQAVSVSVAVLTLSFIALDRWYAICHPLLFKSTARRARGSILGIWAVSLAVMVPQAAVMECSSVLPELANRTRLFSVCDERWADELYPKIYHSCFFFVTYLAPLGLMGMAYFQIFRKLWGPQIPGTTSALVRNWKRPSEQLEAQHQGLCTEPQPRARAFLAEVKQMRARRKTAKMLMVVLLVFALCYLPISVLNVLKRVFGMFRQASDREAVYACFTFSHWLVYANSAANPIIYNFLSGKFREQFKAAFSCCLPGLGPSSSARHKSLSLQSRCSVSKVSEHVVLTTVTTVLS

WT mice = test: Chronic ICV injection of OX2R agonist in WT mice, bone analyses; format: in vivo, mouse
Description: (§2) Bone Analyses. μCT and histomorphometry were performed as described (Wei et al., 2012; Wei et al., 2010). Calcein (20 mg/kg) were injected 2 and 10 days before bone collection. For strength measurement, tibiae were tested by 3-point bending, and a strength parameter (peak load at failure) was assessed with a Test Resources DDL200 axial loading machine outfitted with an Interface SMT1-22 force transducer. Cross-head displacement rate was 0.1 mm/sec. Tests were conducted on the mid-diaphyses with the bones resting on two supports 5 mm apart and the tibial anterior margins facing upward toward the actuator. Serum P1NP and CTX-1 were measured with the Rat/Mouse P1NP EIA kit and the RatLaps™ EIA kit, respectively (Immunodiagnostic Systems) (Wei et al., 2012).
(§3) Chronic ICV Injection. Mice were single-housed one week before surgery. After anesthetized with 2-3% isoflurane, a cannula (3300PM/SPC; PlasticsOne) was implanted into the right lateral ventricle (0.3 mm posterior from the bregma, […] lateral from the midline, and 2.4 mm from the surface of skull) using standard sterile stereotactic techniques as described (Funato et al., 2009). An osmotic minipump (model 1004; Alzet) was attached to the cannula and implanted in the subcutaneous space. The OX2R selective agonist ([Ala11, D-Leu15] Orexin-B; American Peptide) (Asahi et al., 2003) or PBS control was continuously injected in the lateral ventricle for 35 days (0.5 nmol/day) before analyses. Ovariectomy or sham operation was performed 3 days before ICV infusion as described (Wei et al., 2011b).

[5] = tested on: OVX-induced bone loss in WT female mice; test: Chronic ICV injection of OX2R agonist in ovariectomy (OVX) mouse model; format: in vivo; conditions: ICV 0.5 nmol/day for 35 days from 3 days after OVX, 6-month-old female mice
Description: as §2, §3

OX2R-KO mice = test: Chronic ICV injection of OX2R agonist in OX2R-KO mice; format: in vivo, mouse; conditions: ICV 0.5 nmol/day for 35 days
Description: as §2
Chronic ICV Injection. Mice were single-housed one week before surgery. After anesthetized with 2-3% isoflurane, a cannula (3300PM/SPC; PlasticsOne) was implanted into the right lateral ventricle (0.3 mm posterior from the bregma, […] lateral from the midline, and 2.4 mm from the surface of skull) using standard sterile stereotactic techniques as described (Funato et al., 2009). An osmotic minipump (model 1004; Alzet) was attached to the cannula and implanted in the subcutaneous space. […]

Ob/Ob mice = test: Chronic ICV injection of OX2R agonist in Ob/Ob mice; format: in vivo, mouse
Description: as §2, §3

[6] = ICV 0.5 nmol/day for 35 days, WT male mice, serum
[7] = ICV 0.5 nmol/day for 35 days, WT male mice, tibiae μCT

Cc1ccc(-n2nccn2)c(C(=O)N2CCN(c3nc4cc(Cl)ccc4o3)CC[C@H]2C)c1 [suvorexant]
falling asleep (insomniacs): faster | sleep duration (insomniacs): an hour longer

Cc1cc(NC(=O)Nc2ccc(N(C)C)cc2)c2cc(F)cc(F)c2n1 [SB-408124]
osteoblast differentiation [1]: promoted | adipocyte differentiation [2]: attenuated | ghrelin induction during osteoblast differentiation (ghrelin [3]): potentiated | ghrelin secretion (ghrelin [3]): elevated | ghrelin expression in adipocyte differentiation cultures (ghrelin [4]): enhanced | ghrelin secretion (ghrelin [4]): elevated

orexin-A: Human orexin-A peptide, 33 amino acid residues, agonist for OX1R and OX2R (QPLPDCCRQKTCSCRLYELLHGAGNHAAGILTL; ends and bridges not checked; cysteine pairing not given here; UniProt O43612 34-66, looked up)
osteoblast differentiation [1]: inhibited | adipocyte differentiation [2]: enhanced | ghrelin induction during osteoblast differentiation (ghrelin [3]): abolished | ghrelin expression in adipocyte differentiation cultures (ghrelin [4]): inhibited | binding to both OX1 and OX2 (OX1): approximately equal affinity | glucose uptake (3T3-L1 adipocytes; 3T3-L1 adipocytes): stimulates | lipogenesis (3T3-L1 adipocytes; adipocytes): increases | lipolysis (3T3-L1 adipocytes; adipocytes): inhibits | secretion of adiponectin (3T3-L1 adipocytes; adipocytes): stimulates

orexin-B: Human orexin-B, linear 28 amino acid residue peptide, agonist for mainly OX2R
potency at OX1, less than at OX2 (OX1): 5 times | selectivity for orexin receptor type 2 (orexin receptor type 2): 10 fold

CNC(=O)[C@@H](c1ccccc1)N1CCc2cc(OC)c(OC)cc2[C@@H]1CCc1ccc(C(F)(F)F)cc1 [ACT-078573, almorexant]
osteoblast differentiation [1]: promoted | adipocyte differentiation [2]: attenuated | ghrelin induction during osteoblast differentiation (ghrelin [3]): potentiated | ghrelin secretion (ghrelin [3]): elevated | ghrelin expression in adipocyte differentiation cultures (ghrelin [4]): enhanced | ghrelin secretion (ghrelin [4]): elevated

Cc1nc2ccc(NC(=O)Nc3ccnc4cccnc34)cc2o1 [SB-334,867]
nicotine self-administration (orexin-A receptor): decreased

[Ala11, D-Leu15] Orexin-B [OX2R-AG]
bone mass (μCT) (WT mice; ICV 0.5 nmol/day for 35 days, WT male mice): remarkably enhanced | CTX-1 (WT mice; [6]): unaltered | P1NP, increased (WT mice; [6]): 100% | peak load at fracture, higher (WT mice; ICV 0.5 nmol/day for 35 days, WT male mice, three-point bending): 11% | BMD, higher (WT mice; [7]): 8% | SMI, lower (WT mice; [7]): 25% | Tb.N, higher (WT mice; [7]): 32% | Tb.Sp, lower (WT mice; [7]): 33% | Tb.Th, higher (WT mice; [7]): 30% | cortical bone BV/TV, higher (WT mice; [7]): 1% | cortical bone porosity, less (WT mice; [7]): 30% | trabecular BV/TV, higher (WT mice; [7]): 66% | serum leptin levels (WT mice; ICV injection, WT mice): decreased | OVX-induced bone loss [5]: attenuated | OVX-mediated increase in CTX-1 [5]: not significantly altered | OVX-mediated reduction in P1NP [5]: significantly abolished | OVX-mediated reduction in bone formation rate [5]: rescued | OVX-mediated reduction in osteoblast number [5]: rescued | Serum P1NP (OX2R-KO mice; 10-week-old OX2R-KO male mice): unaltered | bone anabolic effect (OX2R-KO mice; OX2R-KO male mice): abolished | BV/TV (Ob/Ob mice): no longer able to increase | Tb.N (Ob/Ob mice): no longer able to increase | Tb.Sp (Ob/Ob mice): no longer able to increase | bone enhancing effects (Ob/Ob mice; 12 week old male): completely abolished | P1NP (Ob/Ob mice; serum): no longer able to increase
